Legend:
[1] = system: MCF10A (human mammary epithelial cell line); experiment: MTT cell viability assay, MCF10A; type: cell-based; design: key to SI (Non-Tumor/MDA-MB231) MCF10A: NS: nonselective; HS: highly selective
Source text: (§1) For in vitro assays, three tumor cell lines were used: MCF7 (ER-positive BC), maintained in Roswell Park Memorial Institute medium (RPMI-1640, Gibco®, Grand Island, NY, USA); MDA-MB-453 (HER2-positive BC), grown in Iscove’s Modified Dulbecco’s Medium (IMDM, Gibco®); and MDA-MB-231 (TNBC), grown in Leibovitz’s L-15 Medium (L15, Gibco®). Additionally, three non-tumor cell lines were used: HUVEC (human umbilical vein endothelial cells), cultured in (RPMI-1640); HFF (human fibroblast), cultured in Dulbecco’s Modified Eagle Medium: Nutrient Mixture—High Glucose (DMEM/F12-High Glucose, Gibco®); and MCF10A (human mammary epithelial cell line), also cultured in DMEM/F12 supplemented with 10 μg/mL of insulin (Gibco®), 0.25 μg/mL of hydrocortisone (Sigma-Aldrich®, Saint Louis, MO, USA), and […] of Epidermal Growth Factor (EGF) (Gibco®). All culture media were supplemented with 10% fetal bovine serum (FBS) (Gibco®) and 50 μg/mL of gentamicin (Cultilab®, Campinas, SP, Brazil). The culture flasks were kept in an incubator at 37 °C under an atmosphere of 5% CO2, except for the MDA-MB 231 lineage, which was grown without CO2 gas exchange. All cells were purchased from the American Type Culture Collection (ATCC, Manassas, VA, USA).
(§2) To analyze cell viability, the test based on the reduction of tetrazolium 3-(4,5-dimethylthiazol-2yl)-2,5-diphenyl bromide (MTT) was used. […] Then, 200 μL of DMSO was added to each well and the reading was carried out at 560 nm using the Multiskan FC Microplate Photometer reader (Thermo Fisher Scientific®, Waltham, MA, USA).
(§3) The data obtained were analyzed using GraphPad Prism 8.0 software. Three independent triplicate assays were conducted and means and standard deviations were calculated. Normality was assessed using the Shapiro–Wilk test and Student’s t-test and one-way ANOVA, followed by Tukey’s post-test, were applied to compare treatments. […] The IC50 values were calculated by non-linear regression and the selectivity index (SI) for MDA-MB-231 cells was established by the ratio between the IC50 of each non-tumor cell line and the IC50 of MDA-MB-231. […]

[2] = system: HUVEC (human umbilical vein endothelial cells); experiment: MTT cell viability assay, HUVEC; type: cell-based
Protocol: (§4) For in vitro assays, three tumor cell lines were used: MCF7 (ER-positive BC), maintained in Roswell Park Memorial Institute medium (RPMI-1640, Gibco®, Grand Island, NY, USA); MDA-MB-453 (HER2-positive BC), grown in Iscove’s Modified Dulbecco’s Medium (IMDM, Gibco®); and MDA-MB-231 (TNBC), grown in Leibovitz’s L-15 Medium (L15, Gibco®). […]
as §2, §3

MDA-MB-231 (TNBC) cells = experiment: MTT cell viability assay, MDA-MB-231; type: cell-based, human
Source text: as §1
(§5) To analyze cell viability, the test based on the reduction of tetrazolium 3-(4,5-dimethylthiazol-2yl)-2,5-diphenyl bromide (MTT) was used. HUVEC cell lines (1.0 × 10^4 cells/well); HFF (8.0 × 10^3 cells/well); MCF10A (1.2 × 10^4 cells/well); MDA-MB-453 and MCF7 (5.0 × 10^3 cells/well) and MDA-MB-231 (1.5 × 10^4 cells/well) were seeded in 96-well plates in complete culture medium. […] All assays were performed in triplicate. Wells containing only cells and medium (untreated cells) and wells containing cells treated with DMSO diluent were used as experimental controls (considered as 100% cell viability). After incubation, MTT (5 mg/mL-diluted in phosphate-buffered saline—PBS) was added along with complete culture medium at 10% v/v and maintained for 4 h. Then, 200 μL of DMSO was added to each well and the reading was carried out at 560 nm using the Multiskan FC Microplate Photometer reader (Thermo Fisher Scientific®, Waltham, MA, USA).
(§6) The data obtained were analyzed using GraphPad Prism 8.0 software. Three independent triplicate assays were conducted and means and standard deviations were calculated. Normality was assessed using the Shapiro–Wilk test and Student’s t-test and one-way ANOVA, followed by Tukey’s post-test, were applied to compare treatments. Differences were considered significant when p < 0.05. The IC50 values were calculated by non-linear regression and the selectivity index (SI) for MDA-MB-231 cells was established by the ratio between the IC50 of each non-tumor cell line and the IC50 of MDA-MB-231. SI values ≥ 2 were considered significant.

[3] = system: MCF7 (ER-positive BC) cells; experiment: MTT cell viability assay, MCF7; type: cell-based, human
Source text: as §1, §5, §6

HFF (human fibroblast) = experiment: MTT cell viability assay, HFF; type: cell-based
Protocol: as §4, §2, §3

[4] = system: MDA-MB-453 (HER2-positive BC) cells; experiment: MTT cell viability assay, MDA-MB-453; type: cell-based, human
Protocol: All culture media were supplemented with 10% fetal bovine serum (FBS) (Gibco®) and 50 μg/mL of gentamicin (Cultilab®, Campinas, SP, Brazil). […] All cells were purchased from the American Type Culture Collection (ATCC, Manassas, VA, USA).
as §5, with “used.” for “used. HUVEC cell lines (1.0 × 10^4 cells/well); HFF (8.0 × 10^3 cells/well); MCF10A (1.2 × 10^4 cells/well); MDA-MB-453 and MCF7 (5.0 × 10^3 cells/well) and MDA-MB-231 (1.5 × 10^4 cells/well) were seeded in 96-well plates in complete culture medium.”
as §6, with “The IC50 values were calculated by non-linear regression and the selectivity index (SI) for MDA-MB-231 cells was established by the ratio between the IC50 of each non-tumor cell line and the IC50 of MDA-MB-231.” left out

Solubility in solvents = type: physicochemical

IC50 (MDA-MB-231 (TNBC) cells; 48 h)	IC50 ([3]; 48 h)	IC50 ([4]; 48 h)	IC50 (MDA-MB-231 (TNBC) cells; Homo sapiens, MDA-MB-231, 48 h)	IC50 ([3]; Homo sapiens, MCF7, 48 h)	IC50 ([4]; Homo sapiens, MDA-MB-453, 48 h)	Structure (SMILES)	cytotoxicity in words, MDA-MB-231 (MDA-MB-231 (TNBC) cells; 48 h)	concentration from which cell viability decreased, MCF7 ([3]; 48 h)	cytotoxicity in words, MCF7 ([3]; 48 h)	cytotoxicity in words, MDA-MB-453 ([4]; 48 h)	solubility in MeOH (Solubility in solvents)	also measured
0.24 µM	9.43 µM	0.32 µM	–	–	–	CCNC(=NN=C(C)c1ccccn1)[S][Zn][O]C(=NN=C(C)c1ccccn1)c1ccco1 [Complex 1, [Zn(Hz)(atc–Et)]]	cytotoxic	≥ 0.25 µM	proliferated after treatment with the lowest concentrations	cytotoxic	–	sensitivity in words, MCF10A ([1]; 48 h, MTT, compared with HUVEC and HFF): most sensitive; IC50 ([1]; 48 h, MTT, non-tumor cell line): < 0.01 µM; SI (Non-Tumor/MDA-MB231) MCF10A ([1]; IC50 in MCF10A divided by IC50 of MDA-MB-231): NS; IC50 ([2]; 48 h, MTT, non-tumor cell line): 2.52 µM; SI (Non-Tumor/MDA-MB231) HUVEC ([2]; IC50 in HUVEC divided by IC50 of MDA-MB-231): 10.50; IC50 (HFF (human fibroblast); 48 h, MTT, non-tumor cell line): 4.57 µM; SI (Non-Tumor/MDA-MB231) HFF (HFF (human fibroblast); IC50 in HFF divided by IC50 of MDA-MB-231): 19.04
–	–	–	–	–	–	CC(=NNC(N)=O)c1ccccn1.CCNC(=NN=C(C)c1ccccn1)[S][Zn+].[Cl-] [Complex 3, [Zn(atc–Et)(Hsc)]Cl]	–	–	–	–	pretty soluble	–
–	–	–	–	–	–	CC(=NN=C([O][Zn+])c1ccco1)c1ccccn1.CC(=NNC(N)=O)c1ccccn1.[Cl-] [Complex 4, [Zn(Hz)(Hsc)]Cl]	–	–	–	–	pretty soluble	–
–	–	–	0.27 µM	> 156 µM	< 0.01 µM	CCNC(=S)N/N=C(\C)c1ccccn1 [Hatc-Et, 2-Acetylpyridine-4-ethyl-3-thiosemicarbazone]	most sensitive	–	most resistant	most sensitive	–	–
–	–	–	30.3 µM	> 156 µM	4.11 µM	CC(=NNC(=O)c1ccco1)c1ccccn1 [Hhz, 2-Acetylpyridine-furanoylhidrazone]	–	≥ 6.25 µM	–	–	–	concentration from which cytotoxicity was observed, MDA-MB-231 (MDA-MB-231 (TNBC) cells; 48 h): ≥ 1250 nM; concentration from which cell viability decreased, MDA-MB-453 ([4]; 48 h): ≥ 6.25 µM
> 156 µM	> 156 µM	< 0.01 µM	–	–	–	[Cl-].[Cl-].[Zn+2] [ZnCl2, zinc chloride]	–	–	–	–	–	–
